9 molecules from patent US11470846B2, “Herbicidal pyridino-/pyrimidino-thiazoles” (SYNGENTA PARTICIPATIONS AG, priority 2014, dated 2022) can be followed below.

What all share (type): in vivo
Test [1] deals with Oryza sativa (ORYSA). Put plainly: Pre-emergence herbicidal activity. Particulars: pre-emergence application, 1000 g/Ha, evaluated after 13 days, scale 0-5. The method, then:
(§1) B1 Pre-Emergence Herbicidal Activity
(§2) Seeds of a variety of test species were sown in standard soil in pots: Triticum aestivium (TRZAW), Oryza sativa (ORYSA), Avena fatua (AVEFA), Alopecurus myosuroides (ALOMY), Echinochloa crus-galli (ECHCG), Lolium perenne (LOLPE), Zea Mays (ZEAMX), Abutilon theophrasti (ABUTH), Amaranthus retroflexus (AMARE) and Setaria faberi (SETFA). After cultivation for one day (pre-emergence) under controlled conditions in a glasshouse (at 24/16° C., day/night; 14 hours light; 65% humidity), the plants were sprayed with an aqueous spray solution derived from the formulation of the technical active ingredient in acetone/water (50:50) solution containing 0.5% Tween 20 (polyoxyethelyene sorbitan monolaurate, CAS RN 9005-64-5). The test plants were then grown in a glasshouse under controlled conditions (at 24/16° C., day/night; 14 hours light; 65% humidity) and watered twice daily. After 13 days, the test was evaluated (5=total damage to plant; 0=no damage to plant).

Test [2] deals with Echinochloa crus-galli (ECHCG). Put plainly: Pre-emergence herbicidal activity. Particulars: pre-emergence application, 1000 g/Ha, evaluated after 13 days, scale 0-5; Table 5. The method, then:
as §1, §2

The test system of test [3] is Lolium perenne (LOLPE). The experiment in a line: Pre-emergence herbicidal activity. Particulars: pre-emergence application, 1000 g/Ha, evaluated after 13 days, scale 0-5; Table 5. The method, then:
as §1, §2

Test [4] deals with Triticum aestivium (TRZAW). Put plainly: Pre-emergence herbicidal activity. Particulars: pre-emergence application, 1000 g/Ha, evaluated after 13 days, scale 0-5. The method, then:
as §1, §2

Test [5] deals with Avena fatua (AVEFA). The experiment in a line: Pre-emergence herbicidal activity. Particulars: pre-emergence application, 1000 g/Ha, evaluated after 13 days, scale 0-5. As to the method: as §1, §2
Test [6] concerns Alopecurus myosuroides (ALOMY). Put plainly: Pre-emergence herbicidal activity. Particulars: pre-emergence application, 1000 g/Ha, evaluated after 13 days, scale 0-5. The method, then: as §1, §2
The subject of test [7] is Oryza sativa (ORYSA). The experiment in a line: Post-emergence herbicidal activity. Particulars: post-emergence application, 1000 g/Ha, evaluated after 13 days, scale 0-5. The method, then:
(§3) B2 Post-Emergence Herbicidal Activity
(§4) Seeds of a variety of test species were sown in standard soil in pots: Triticum aestivium (TRZAW), Oryza sativa (ORYSA), Avena fatua (AVEFA), Alopecurus myosuroides (ALOMY), Echinochloa crus-galli (ECHCG), Lolium perenne (LOLPE), Zea Mays (ZEAMX), Abutilon theophrasti (ABUTH), Amaranthus retroflexus (AMARE) and Setaria faberi (SETFA). After 8 days cultivation (post-emergence) under controlled conditions in a glasshouse (at 24/16° C., day/night; 14 hours light; 65% humidity), the plants were sprayed with an aqueous spray solution derived from the formulation of the technical active ingredient in acetone/water (50:50) solution containing 0.5% Tween 20 (polyoxyethelyene sorbitan monolaurate, CAS RN 9005-64-5). The test plants were then grown in a glasshouse under controlled conditions (at 24/16° C., day/night; 14 hours light; 65% humidity) and watered twice daily. After 13 days, the test was evaluated (5=total damage to plant; 0=no damage to plant).

Test [8] has as its system Echinochloa crus-galli (ECHCG). The experiment in a line: Post-emergence herbicidal activity. Particulars: post-emergence application, 1000 g/Ha, evaluated after 13 days, scale 0-5; Table 7. As to the method: as §3, §4
In test [9] the test system is Lolium perenne (LOLPE). Put plainly: Post-emergence herbicidal activity. Particulars: post-emergence application, 1000 g/Ha, evaluated after 13 days, scale 0-5; Table 7. As to the method:
as §3, §4

Test [10] has as its system Triticum aestivium (TRZAW). Put plainly: Post-emergence herbicidal activity. Particulars: post-emergence application, 1000 g/Ha, evaluated after 13 days, scale 0-5. The method, then: as §3, §4
For test [11], the system named is Avena fatua (AVEFA). Put plainly: Post-emergence herbicidal activity. Particulars: post-emergence application, 1000 g/Ha, evaluated after 13 days, scale 0-5. The method, then:
as §3, §4

Test [12] has as its system Alopecurus myosuroides (ALOMY). Put plainly: Post-emergence herbicidal activity. Particulars: post-emergence application, 1000 g/Ha, evaluated after 13 days, scale 0-5. The method, then: as §3, §4

With `COC(=O)N(C)c1sc(-c2cccnc2)nc1C` [Compound A18], the “Control of weed species, ORYSA (damage score)” value (shortened to “Control of weed species, ORYSA”) in test [1] and in [7] was 0 in each case. In addition, the “Control of weed species, ECHCG (damage score)” value (from here on “Control of weed species, ECHCG”) in [2] and in test [8] was 5 throughout. In addition, the “Control of weed species, LOLPE (damage score)” value (“Control of weed species, LOLPE” for short) in test [3] and in test [9] was 2 in each case. Moreover, the “Control of weed species, TRZAW (damage score)” value (“Control of weed species, TRZAW” for short) in test [4] and in test [10] was 1 throughout. For the same molecule, the “Control of weed species, AVEFA (damage score)” value (“Control of weed species, AVEFA” for short) is listed as 2 in [5] and 3 in test [11]. The “Control of weed species, ALOMY (damage score)” value (“Control of weed species, ALOMY” for short) in test [6] and in test [12] was 1 throughout.
For `Cc1nc(-c2cccnc2)sc1N(C)C(=O)NC(C)(C)C` [Compound A21, 3-tert-butyl-1-methyl-1-[4-methyl-2-(3-pyridyl)thiazol-5-yl]urea], the “Control of weed species, ORYSA” value in test [1] and in test [7] was 0 throughout. In addition, the “Control of weed species, ECHCG” value in test [2] and in [8] was 5 throughout. For the same molecule, the “Control of weed species, LOLPE” value in [3] was 1; in test [9] it was 3. In addition, the “Control of weed species, TRZAW” value in test [4] is 0; in test [10], 1. Further, the “Control of weed species, AVEFA” value in [5] worked out at 2; in [11], 4. The “Control of weed species, ALOMY” value was determined as 0 in test [6] and 2 in test [12].
With `Cc1nc(-c2cncc(F)c2)sc1N1CCOC1=O` [Compound A38, 3-[2-(5-fluoro-3-pyridyl)-4-methyl-thiazol-5-yl]oxazolidin-2-one], the “Control of weed species, ORYSA” value is 3 in test [1] and 0 in test [7]. The “Control of weed species, ECHCG” value in [2] and in test [8] was 5 each time. Also, the “Control of weed species, LOLPE” value in test [3] stood at 2; in [9], 3. Further, the “Control of weed species, TRZAW” value in [4] is reported as 0; in [10], 1. Further, the “Control of weed species, AVEFA” value was determined as 1 in test [5] and 4 in test [11]. Moreover, the “Control of weed species, ALOMY” value in [6] and in [12] was 1 throughout.
As for `Cc1nc(-c2cncc(N)c2)sc1N(C)C(=O)OC(C)(C)C` [Compound A11], the “Control of weed species, ORYSA” value came to 2 in [1] and 1 in test [7]. The “Control of weed species, ECHCG” value in test [2] and in test [8] was 2 each time. The figures for the “Control of weed species, LOLPE” value in test [3] and in test [9] were 0 and 1, respectively. The “Control of weed species, TRZAW” value in [4] and in [10] was 2 in each case. Further, the “Control of weed species, AVEFA” value in test [5] and in test [11] was 1 throughout. In addition, the “Control of weed species, ALOMY” value in test [6] and in test [12] was 1 each time.
Consider `Cc1nc(-c2cncc(OC(F)F)c2)sc1N(C)C(=O)OC(C)(C)C` [Compound A16, tert-butyl N-[2-[5-(difluoromethoxy)-3-pyridyl]-4-methyl-thiazol-5-yl]-N-methyl-carbamate], for which the “Control of weed species, ORYSA” value in test [1] worked out at 1; in test [7], 0. In addition, the “Control of weed species, ECHCG” value in [2] was 4; in test [8] it was 5. For the same molecule, the “Control of weed species, LOLPE” value in test [3] and in [9] was 4 throughout. Besides, the “Control of weed species, TRZAW” value was 3 in test [4] and 4 in test [10]. Moreover, the “Control of weed species, AVEFA” value in test [5] came out at 3; in [11] it was 5. Further, the “Control of weed species, ALOMY” value in test [6] was 0; in test [12], 3.
`Cc1nc(-c2cncc(C=O)c2)sc1N(C)C(=O)OC(C)(C)C` [Compound A5]: the “Control of weed species, ORYSA” value in test [1] and in test [7] was 0 each time. Further, the “Control of weed species, ECHCG” value in test [2] and in [8] was 0 in each case. The “Control of weed species, LOLPE” value in [3] and in test [9] was 0 in each case. In addition, the “Control of weed species, TRZAW” value in test [4] and in [10] was 0 in each case. Also, the “Control of weed species, AVEFA” value in test [5] and in [11] was 0 throughout. Moreover, the “Control of weed species, ALOMY” value in test [6] and in test [12] was 0 in each case.
With `COc1cncc(-c2nc(C)c(N(C)C(=O)OC(C)(C)C)s2)c1` [Compound A6], the “Control of weed species, ORYSA” value stood at 1 in test [1] and 0 in test [7]. Besides, the “Control of weed species, ECHCG” value came to 2 in [2] and 4 in test [8]. For the same molecule, the “Control of weed species, LOLPE” value in test [3] is 1; in test [9], 2. The “Control of weed species, TRZAW” value in test [4] turned out to be 0; in test [10], 1. Further, the “Control of weed species, AVEFA” value in [5] amounted to 0; in test [11], 2. Besides, the “Control of weed species, ALOMY” value in [6] and in test [12] was 1 each time.
As for `Cc1nc(-c2cncc(S(C)(=O)=O)c2)sc1N(C)C(=O)OC(C)(C)C` [Compound A9], the entries for the “Control of weed species, ORYSA” value in test [1] and in [7] were 0 and 1, respectively. For the same molecule, the “Control of weed species, ECHCG” value in [2] was 0; in test [8], 2. Besides, the “Control of weed species, LOLPE” value in test [3] came to 0; in [9], 1. For the same molecule, the “Control of weed species, TRZAW” value came to 0 in test [4] and 2 in [10]. In addition, the “Control of weed species, AVEFA” value in test [5] turned out to be 0; in test [11], 2. Moreover, the “Control of weed species, ALOMY” value was 0 in [6] and 1 in test [12].
As for `CN(C(=O)OC(C)(C)C)c1sc(-c2cccnc2)nc1I` [Compound A31, tert-butyl N-[4-iodo-2-(3-pyridyl)thiazol-5-yl]-N-methyl-carbamate], the “Control of weed species, ORYSA” value in test [1] and in test [7] was 1 throughout. For the same molecule, the figures for the “Control of weed species, ECHCG” value in test [2] and in test [8] were 3 and 4, respectively. Further, the “Control of weed species, LOLPE” value in [3] is on record as 2; in [9] it was 3. The “Control of weed species, TRZAW” value in test [4] and in test [10] was 1 throughout. Also, the figures for the “Control of weed species, AVEFA” value in test [5] and in [11] were 1 and 5, respectively. For the same molecule, the “Control of weed species, ALOMY” value in [6] and in test [12] was 1 throughout.
